Consider 20 molecules from patent US10501425B2, “Microbiocidal oxadiazole derivatives” (SYNGENTA PARTICIPATIONS AG, priority 2015, dated 2019).

Each structure is given as a SMILES string. Where only a bound is given, the exact number is not on record here.

The subject of data set [1] is Puccinia recondita f. Sp. Tritici. Put plainly: Puccinia recondita f. sp. tritici / wheat / leaf disc preventative (brown rust). Format: in vivo. The settings on record: foliar, 200 ppm in the applied formulation, wheat leaf segments cv. Kanzler, preventative (inoculated 1 day after application), compared to untreated, read-out: disease control. The gist of the method:
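Wheat leaf segments (cv. Kanzler) on water agar were sprayed with test compound (DMSO stock diluted in 0.025% Tween20/water), then spore-inoculated 1 day later. Incubation at 19° C., 75% rh, 12 h light/12 h dark; percent disease control versus untreated segments scored 7 to 9 days after application. Tested at 200 ppm.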

Data set [2] deals with Phakopsora pachyrhizi. Description: Phakopsora pachyrhizi / soybean / leaf disc preventative (Asian soybean rust). Type of data set: in vivo. The settings on record: foliar, 200 ppm in the applied formulation, soybean leaf disks, compared to untreated, read-out: disease control. The method, boiled down: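 Read-out is percent disease control relative to untreated check discs, assessed once untreated discs show adequate disease, 12 to 14 days after application. Compounds, tested at 200 ppm in the applied formulation, are sprayed onto soybean leaf discs one day before inoculation with a spore suspension.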

Data set [3] relates to Puccinia recondita f. Sp. Tritici. Description: Puccinia recondita f. sp. tritici / wheat / leaf disc curative (brown rust). Format: in vivo. The conditions noted are these: foliar, 24 h, 200 ppm in the applied formulation, wheat leaf segments cv. Kanzler, curative (applied 1 day after inoculation), compared to untreated, read-out: disease control. The gist of the method:
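Compounds, prepared from DMSO solutions of at most 10 mg/ml and diluted just before spraying, are applied curatively to inoculated Kanzler wheat leaf segments. Segments are incubated at 19° C and 75% RH in a climate cabinet; disease control relative to untreated is evaluated 6 to 8 days later.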

For data set [4], the system named is Glomerella lacenarium (Colletotrichum lagenarium). Put plainly: Glomerella lagenarium liquid culture / cucumber / preventative (anthracnose). Format: cell-based. The settings on record: Colletotrichum orbiculare; 20 ppm in the applied formulation; liquid culture (PDB), growth inhibition measured photometrically 3 to 4 days after application; compared to untreated; read-out: disease control. The gist of the method: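 Conidia from cryogenic storage were mixed into potato dextrose broth. This was added to compound diluted from DMSO into 0.025% Tween20, tested at 20 ppm. Plates were incubated in the dark at 24 °C and 96% relative humidity, and growth was read photometrically after 2–7 days as % activity versus untreated check.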

The melting point is the temperature, or range, at which the solid turns liquid. Molecule `COCCNC(=O)NCc1ccc(-c2noc(C(F)(F)F)n2)cc1` [Compound 3.3] had a melting point of 152 to 155 °C. Also, the pest or weed control at 200 ppm in data set [1] was no less than 80%. In data set [2], the pest or weed control at 200 ppm was no less than 80%. In addition, in data set [3], the pest or weed control at 200 ppm was no less than 80%. In addition, the inhibition of growth at 20 ppm in data set [4] was no less than 80%.
With `CCC(=O)NC1(c2ccc(-c3noc(C(F)(F)F)n3)cc2)CC1` [Compound 1.99, N-[1-[4-[5-(trifluoromethyl)-1,2,4-oxadiazol-3-yl]phenyl]cyclopropyl]propanamide], the melting point fell in the range of 121 to 128 °C. The pest or weed control at 200 ppm in data set [1] is no less than 80%. The pest or weed control at 200 ppm in data set [2] is no less than 80%. Further, the pest or weed control at 200 ppm in data set [3] is no less than 80%. Further, the inhibition of growth at 20 ppm in data set [4] was no less than 80%.
Take `COCCOC(=O)NCc1ccc(-c2noc(C(F)(F)F)n2)cc1` [Compound 2.3, 2-methoxyethyl N-[[4-[5-(trifluoromethyl)-1,2,4-oxadiazol-3-yl]phenyl]methyl]carbamate]: the melting point lay within 82 to 85 °C. In addition, the pest or weed control at 200 ppm in data set [1] is no less than 80%. Further, the pest or weed control at 200 ppm in data set [2] was no less than 80%. Besides, the pest or weed control at 200 ppm in data set [3] was no less than 80%. The inhibition of growth at 20 ppm in data set [4] was no less than 80%.
As to `CON(C)C(=O)NCCc1ccc(-c2noc(C(F)(F)F)n2)cc1` [Compound 3.5, 1-methoxy-1-methyl-3-[2-[4-[5-(trifluoromethyl)-1,2,4-oxadiazol-3-yl]phenyl]ethyl]urea], the melting point is 80 to 84 °C. The pest or weed control at 200 ppm in data set [1] was no less than 80%. In addition, the pest or weed control at 200 ppm in data set [2] was no less than 80%. In addition, in data set [3], the pest or weed control at 200 ppm is no less than 80%. The inhibition of growth at 20 ppm in data set [4] was no less than 80%.
`CCC(=O)NCc1ccc(-c2noc(C(F)(F)F)n2)c(F)c1` [Compound 1.34, N-[[3-fluoro-4-[5-(trifluoromethyl)-1,2,4-oxadiazol-3-yl]phenyl]methyl]propanamide]: the melting point is 108 to 110 °C. The pest or weed control at 200 ppm in data set [1] was no less than 80%. For the same molecule, the pest or weed control at 200 ppm in data set [2] is no less than 80%. Besides, in data set [3], the pest or weed control at 200 ppm was no less than 80%. Besides, the inhibition of growth at 20 ppm in data set [4] was no less than 80%.
With `CON(C)C(=O)NCc1ccc(-c2noc(C(F)(F)F)n2)cc1` [Compound 3.2, 1-methoxy-1-methyl-3-[[4-[5-(trifluoromethyl)-1,2,4-oxadiazol-3-yl]phenyl]methyl]urea], the melting point lay in the range of 90.2 to 93.8 °C. Moreover, the pest or weed control at 200 ppm in data set [1] is no less than 80%. In addition, the pest or weed control at 200 ppm in data set [2] was no less than 80%. Besides, the pest or weed control at 200 ppm in data set [3] was no less than 80%. Further, the inhibition of growth at 20 ppm in data set [4] was no less than 80%.
On to `CCC(=O)NCc1ccc(-c2noc(C(F)(F)F)n2)cc1Cl` [Compound 1.32, N-[[2-chloro-4-[5-(trifluoromethyl)-1,2,4-oxadiazol-3-yl]phenyl]methyl]propanamide], for which the melting point lay in the range of 126 to 130 °C. For the same molecule, in data set [1], the pest or weed control at 200 ppm was no less than 80%. For the same molecule, in data set [2], the pest or weed control at 200 ppm was no less than 80%. Moreover, the inhibition of growth at 20 ppm in data set [4] was no less than 80%.
Regarding `CCC(=O)NCC(F)c1ccc(-c2noc(C(F)(F)F)n2)cc1` (centres unmarked) [Compound 1.107, N-[2-fluoro-2-[4-[5-(trifluoromethyl)-1,2,4-oxadiazol-3-yl]phenyl]ethyl]propanamide], the melting point lay within 118 to 128 °C. The pest or weed control at 200 ppm in data set [1] was no less than 80%. In addition, in data set [2], the pest or weed control at 200 ppm is no less than 80%. The pest or weed control at 200 ppm in data set [3] is no less than 80%. In addition, the inhibition of growth at 20 ppm in data set [4] is no less than 80%.
Consider `COC(C)(C)C(=O)NCc1ccc(-c2noc(C(F)(F)F)n2)cc1` [Compound 1.103, 2-methoxy-2-methyl-N-[[4-[5-(trifluoromethyl)-1,2,4-oxadiazol-3-yl]phenyl]methyl]propanamide], for which the melting point fell in the range of 77 to 80 °C. Besides, the pest or weed control at 200 ppm in data set [1] was no less than 80%. Moreover, the pest or weed control at 200 ppm in data set [2] is no less than 80%. Also, the pest or weed control at 200 ppm in data set [3] is no less than 80%. In addition, the inhibition of growth at 20 ppm in data set [4] is no less than 80%.
In turn, `COCC(=O)NC1(c2ccc(-c3noc(C(F)(F)F)n3)cc2)CC1` [Compound 1.96, 2-methoxy-N-[1-[4-[5-(trifluoromethyl)-1,2,4-oxadiazol-3-yl]phenyl]cyclopropyl]acetamide] gave a melting point of 95 to 99 °C. The pest or weed control at 200 ppm in data set [1] is no less than 80%. Besides, the pest or weed control at 200 ppm in data set [2] is no less than 80%. For the same molecule, the pest or weed control at 200 ppm in data set [3] was no less than 80%. Besides, the inhibition of growth at 20 ppm in data set [4] is no less than 80%.
In the case of `CCCOC(=O)NCc1ccc(-c2noc(C(F)(F)F)n2)cc1` [Compound 2.6, propyl N-[[4-[5-(trifluoromethyl)-1,2,4-oxadiazol-3-yl]phenyl]methyl]carbamate], the melting point was in the range of 107.8 to 109.7 °C. In addition, the pest or weed control at 200 ppm in data set [1] is no less than 80%. Besides, the pest or weed control at 200 ppm in data set [2] is no less than 80%. In addition, the pest or weed control at 200 ppm in data set [3] was no less than 80%. Also, the inhibition of growth at 20 ppm in data set [4] was no less than 80%.
`COCCC(=O)NC1(c2ccc(-c3noc(C(F)(F)F)n3)cc2)CC1` [Compound 1.98, 3-methoxy-N-[1-[4-[5-(trifluoromethyl)-1,2,4-oxadiazol-3-yl]phenyl]cyclopropyl]propanamide] registered a melting point of 113 to 118 °C. The pest or weed control at 200 ppm in data set [1] is no less than 80%. Besides, the pest or weed control at 200 ppm in data set [3] is no less than 80%. For the same molecule, the inhibition of growth at 20 ppm in data set [4] is no less than 80%.
The molecule `CCC(=O)NCc1ccc(-c2noc(C(F)(F)F)n2)c(F)c1F` [Compound 1.54, N-[[2,3-difluoro-4-[5-(trifluoromethyl)-1,2,4-oxadiazol-3-yl]phenyl]methyl]propanamide] yielded a melting point of 112 to 118 °C. Further, the pest or weed control at 200 ppm in data set [1] is no less than 80%. Besides, the pest or weed control at 200 ppm in data set [2] was no less than 80%. The pest or weed control at 200 ppm in data set [3] is no less than 80%. Further, the inhibition of growth at 20 ppm in data set [4] was no less than 80%.
Take `COCCC(=O)NC(C)(C)c1ccc(-c2noc(C(F)(F)F)n2)cc1` [Compound 1.94, 3-methoxy-N-[1-methyl-1-[4-[5-(trifluoromethyl)-1,2,4-oxadiazol-3-yl]phenyl]ethyl]propanamide]: the melting point was 94 to 103 °C. The pest or weed control at 200 ppm in data set [1] is no less than 80%. The pest or weed control at 200 ppm in data set [2] is no less than 80%. Besides, in data set [3], the pest or weed control at 200 ppm is no less than 80%. In data set [4], the inhibition of growth at 20 ppm was no less than 80%.
Molecule `CN(C)C(=O)NCc1ccc(-c2noc(C(F)(F)F)n2)cc1` [Compound 3.1, 1,1-dimethyl-3-[[4-[5-(trifluoromethyl)-1,2,4-oxadiazol-3-yl]phenyl]methyl]urea] yielded a melting point of 118 to 125 °C. Moreover, in data set [1], the pest or weed control at 200 ppm is no less than 80%. The pest or weed control at 200 ppm in data set [2] is no less than 80%. Further, in data set [3], the pest or weed control at 200 ppm was no less than 80%. Moreover, the inhibition of growth at 20 ppm in data set [4] is no less than 80%.
The molecule `CON(C)C(=O)NC1(c2ccc(-c3noc(C(F)(F)F)n3)cc2)CC1` [Compound 3.26, 1-methoxy-1-methyl-3-[1-[4-[5-(trifluoromethyl)-1,2,4-oxadiazol-3-yl]phenyl]cyclopropyl]urea] showed a melting point of 81 to 83 °C. The pest or weed control at 200 ppm in data set [1] was no less than 80%. Also, the pest or weed control at 200 ppm in data set [2] was no less than 80%. Besides, the pest or weed control at 200 ppm in data set [3] was no less than 80%. For the same molecule, the inhibition of growth at 20 ppm in data set [4] is no less than 80%.
As to `CON(C)C(=O)NC(C)(C)c1ccc(-c2noc(C(F)(F)F)n2)cc1` [Compound 3.25, 1-methoxy-1-methyl-3-[1-methyl-1-[4-[5-(trifluoromethyl)-1,2,4-oxadiazol-3-yl]phenyl]ethyl]urea], the melting point is 78 to 83 °C. For the same molecule, the pest or weed control at 200 ppm in data set [1] is no less than 80%. The pest or weed control at 200 ppm in data set [2] was no less than 80%. Moreover, in data set [3], the pest or weed control at 200 ppm was no less than 80%. Also, the inhibition of growth at 20 ppm in data set [4] was no less than 80%.
Molecule `CCCNC(=O)NCc1ccc(-c2noc(C(F)(F)F)n2)cc1` [Compound 3.6, 1-propyl-3-[[4-[5-(trifluoromethyl)-1,2,4-oxadiazol-3-yl]phenyl]methyl]urea] registered a melting point of 174.1 to 176.4 °C. In addition, the pest or weed control at 200 ppm in data set [1] was no less than 80%. Moreover, the pest or weed control at 200 ppm in data set [2] is no less than 80%. The inhibition of growth at 20 ppm in data set [4] is no less than 80%.
As for `CC(C)(O)C(=O)NCc1ccc(-c2noc(C(F)(F)F)n2)cc1` [Compound 1.104, 2-hydroxy-2-methyl-N-[[4-[5-(trifluoromethyl)-1,2,4-oxadiazol-3-yl]phenyl]methyl]propanamide], the melting point lay within 95 to 98 °C. Also, the pest or weed control at 200 ppm in data set [1] is no less than 80%. Besides, the pest or weed control at 200 ppm in data set [3] was no less than 80%. The inhibition of growth at 20 ppm in data set [4] is no less than 80%.
On to `COC(C)C(=O)NCc1ccc(-c2noc(C(F)(F)F)n2)nc1` (centres unmarked) [Compound 1.105, 2-methoxy-N-[[6-[5-(trifluoromethyl)-1,2,4-oxadiazol-3-yl]-3-pyridyl]methyl]propanamide], for which the melting point fell in the range of 99 to 103 °C. Besides, in data set [1], the pest or weed control at 200 ppm was no less than 80%. Also, the pest or weed control at 200 ppm in data set [3] was no less than 80%. The inhibition of growth at 20 ppm in data set [4] was no less than 80%.
